Reference: patent publication US20190343908A1, “Therapeutic Combination for the Treatment of Cancer” (Nerium Biotechnology Inc., priority 2011, published 2019)

How the values were obtained:
[1] = tested on: 22Rv1 (human prostate cancer); assay: Crystal Violet (CVE) viability assay, 22Rv1; format: cell-based; details: for Average absorbance, CVE 24 h / Average absorbance, CVE 48 h / Average absorbance, CVE 72 h: 22Rv1 Run 3
Source text: The Sulforhodamine B and Crystal Violet assays provide information about protein and were used to complement the Methyl-Tetrazolium dye assay. […] It is used for the quantification of cellular proteins of cultured cells. The assay using Crystal Violet, a dye that binds electrostatically to proteins and stains DNA, provides a reliable, simple assay for measuring viability of cells.
(§1) The Methyl Tetrazolium, Sulforhodamine B, and Crystal Violet assays were used to assess cell viabilities. The incubation times were 24 hours, 48 hours, and 72 hours. The Nerium oleander extract Anvirzel™ (a hot water extract of oleander obtained from Salud Integral, Honduras) was tested in concentrations ranging from 0.01 ng/mL to 10 ng/mL.
(§2) Cells were detached by trypsinization (Trypsin-0.25% EDTA, Invitrogen, 25200-072) during the logarithmic phase of culture growth and plated in 96-well plates (18.000 cells/well) (Corning, Costar 359) in a final volume of 200 μl of medium per well. […] The absorbance was measured after 24 hours, 48 hours, and 72 hours of incubation.
For the Crystal Violet assay, the medium was removed from the 96-well plates, the plates rinsed with PBS (Sigma, P3813) and then the cells were […] by the addition of 10% formalin (MERCK, 1.04003.2500) for 20 minutes at RT. Formalin was removed and 0.25% aqueous crystal violet (Sigma, HT901), dissolved in water, was added for 10 minutes at RT. Unbound Crystal Violet was rinsed by washing with water and finally 33% acetic acid was added to dissolve the dye.
(§3) The optical density of each plate was measured on a μQuant spectrophotometer and the data were analyzed with Gen5 software (μQuant Biomolecular Spectrophotometer MQX200 and Gen5™ Microplate Data Collection & Analysis software, BioTek® Instruments. Inc, April 2008). Absorbance was measured at 570 nm for all assays and a second wavelength was measured in order to subtract noise. For the Methyl-Tetrazolium assay this second wavelength was 630 nm and for the Sulforhodamine B and Crystal Violet assays it was 690 nm.

[2] = tested on: 22Rv1 (human prostate cancer); assay: Methyl-Tetrazolium (MTT) viability assay, 22Rv1; format: cell-based; details: for Average absorbance, MTT 24 h / Average absorbance, MTT 48 h / Average absorbance, MTT 72 h: 22Rv1 Run 3
Source text: Three different viability assays were chosen to complement each other and yielded results dependent on concentration and cell line: the Methyl Tetrazolium dye assay, the Sulforhodamine B fluorescent dye assay, and the Crystal Violet dye assay.
The Methyl-Tetrazolium dye assay measures the activity of enzymes in mitochondria. The dye precursor is taken up by cells, where it undergoes reduction to the purple formazan. It measures only the mitochondrial activity and, thus, it is not always a reliable indication of whether the cells themselves are alive or dead, since even a recently dead cell has […] enzyme activity in mitochondria. Intracellular glucose concentration, pH, and time before assay all affect the measurements.
as §1, §2
For the Methyl-Tetrazolium assay, the dye (Sigma, M2128; 5 mg/mL, diluted in phosphate-buffered saline) was added to each well and plates were incubated for 3 hours at 37° C. After the end of the incubation period, the medium was discarded and the cells were rinsed with phosphate-buffered saline. Finally, the formazan crystals were dissolved in dimethylsulphoxide (Sigma, D4540).
as §3

## N.N.[Cl][Pt][Cl] [cisplatin]
[1]; 22Rv1 Run 1, 0.1 μg/ml CDDP
  CVE 24 h Average: 0.27
  CVE 48 h Average: 0.501
  CVE 72 h Average: 0.803
[1]; 22Rv1 Run 1, 1 μg/ml CDDP
  CVE 24 h Average: 0.152
  CVE 48 h Average: 0.437
  CVE 72 h Average: 0.606
[1]; 22Rv1 Run 1, 10 μg/ml CDDP
  CVE 48 h Average: 0.351
  CVE 72 h Average: 0.439
[1]; 22Rv1 Run 1, 100 μg/ml CDDP
  CVE 24 h Average: 0.124
  CVE 48 h Average: 0.273
  CVE 72 h Average: 0.233
[1]; 22Rv1 Run 2, 0.1 μg/ml CDDP
  CVE 24 h Average: 0.541
  CVE 48 h Average: 0.776
  CVE 72 h Average: 0.784
[1]; 22Rv1 Run 2, 1 μg/ml CDDP
  CVE 24 h Average: 0.305
  CVE 48 h Average: 0.517
  CVE 72 h Average: 0.286
[1]; 22Rv1 Run 2, 10 μg/ml CDDP
  CVE 24 h Average: 0.376
  CVE 48 h Average: 0.434
  CVE 72 h Average: 0.206
[1]; 22Rv1 Run 2, 100 μg/ml CDDP
  CVE 24 h Average: 0.228
  CVE 48 h Average: 0.228
  CVE 72 h Average: 0.256
[1]; 0.1 μg/ml CDDP
  Average absorbance, CVE 24 h: 0.85
  Average absorbance, CVE 48 h: 0.644
  Average absorbance, CVE 72 h: 0.45
[1]; 1 μg/ml CDDP
  Average absorbance, CVE 24 h: 0.434
  Average absorbance, CVE 48 h: 0.404
  Average absorbance, CVE 72 h: 0.284
[1]; 10 μg/ml CDDP
  Average absorbance, CVE 24 h: 0.295
  Average absorbance, CVE 48 h: 0.289
  Average absorbance, CVE 72 h: 0.283
[1]; 100 μg/ml CDDP
  Average absorbance, CVE 24 h: 0.215
  Average absorbance, CVE 48 h: 0.212
  Average absorbance, CVE 72 h: 0.234
[2]; 22Rv1 Run 1, 0.1 μg/ml CDDP
  MTT 24 h Average: 0.042
  MTT 48 h Average: 0.141
  MTT 72 h Average: 0.168
[2]; 22Rv1 Run 1, 1 μg/ml CDDP
  MTT 24 h Average: 0.013
  MTT 48 h Average: 0.013
  MTT 72 h Average: 0.015
[2]; 22Rv1 Run 1, 10 μg/ml CDDP
  MTT 24 h Average: 0.033
  MTT 48 h Average: 0.013
  MTT 72 h Average: 0.01
[2]; 22Rv1 Run 1, 100 μg/ml CDDP
  MTT 24 h Average: 0.011
  MTT 48 h Average: 0.008
  MTT 72 h Average: 0.009
[2]; 22Rv1 Run 2, 0.1 μg/ml CDDP
  MTT 24 h Average: 0.077
  MTT 48 h Average: 0.172
  MTT 72 h Average: 0.29
[2]; 22Rv1 Run 2, 1 μg/ml CDDP
  MTT 24 h Average: 0.011
  MTT 48 h Average: 0.014
  MTT 72 h Average: 0.016
[2]; 22Rv1 Run 2, 10 μg/ml CDDP
  MTT 24 h Average: 0.019
  MTT 48 h Average: 0.016
  MTT 72 h Average: 0.013
[2]; 22Rv1 Run 2, 100 μg/ml CDDP
  MTT 24 h Average: 0.009
  MTT 48 h Average: 0.008
  MTT 72 h Average: 0.008
[2]; 0.1 μg/ml CDDP
  Average absorbance, MTT 24 h: 0.08
  Average absorbance, MTT 48 h: 0.135
  Average absorbance, MTT 72 h: 0.128
[2]; 1 μg/ml CDDP
  Average absorbance, MTT 24 h: 0.015
  Average absorbance, MTT 48 h: 0.016
  Average absorbance, MTT 72 h: 0.015
[2]; 10 μg/ml CDDP
  Average absorbance, MTT 24 h: 0.023
  Average absorbance, MTT 48 h: 0.017
  Average absorbance, MTT 72 h: 0.013
[2]; 100 μg/ml CDDP
  Average absorbance, MTT 24 h: 0.011
  Average absorbance, MTT 48 h: 0.011
  Average absorbance, MTT 72 h: 0.011
